According to article PMC9127750, “Structure-based design of CDC42 effector interaction inhibitors for the treatment of cancer” (Cell reports, 2022):

Tested on: WM3248 melanoma cells, 486 antibodies
Experiment: Reverse phase protein arrays (RPPA);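 for RPPA ACC1.R.C: ratio of treated to vehicle (0 µM) normalized linear protein signal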;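 for RPPA AMPK.a2 pS345.R.V: ratio of treated to vehicle (0 µM) normalized linear protein signal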;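 for RPPA AMPKa pT172.R.C: ratio of treated to vehicle (0 µM) normalized linear protein signal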;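 for RPPA ASNS.R.V: ratio of treated to vehicle (0 µM) normalized linear protein signal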;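 for RPPA AceCS1.R.V: ratio of treated to vehicle (0 µM) normalized linear protein signal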;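 for RPPA Akt1.R.V: ratio of treated to vehicle (0 µM) normalized linear protein signal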;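 for RPPA Atg5.R.C: ratio of treated to vehicle (0 µM) normalized linear protein signal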;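 for RPPA Bim.R.V: ratio of treated to vehicle (0 µM) normalized linear protein signal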
Assay type: cell-based, Human
Conditions: 20 uM
Description: Pellets were snap frozen in liquid nitrogen and shipped to MD Anderson Cancer Center core RPPA facility for RPPA analysis (Table S5). Three biological replicates for each sample were generated.
Nomenclatures on the RPPA heatmaps: name_of_antibody.species_of_antibody.status_of_antibody. V - antibody validated; C - validation of antibody in progress; Q - antibody nonspecific; E – under evaluation; antibodies raised in M - mouse, G - goat, R - rabbit, or T - rat.

## CN(C)c1cccc(Nc2cc(-c3ccccc3)nc(C3CCNCC3)n2)c1 [ARN22089, N1,N1-dimethyl-N3-(6-phenyl-2-(piperidin-4-yl)pyrimidin-4-yl)benzene-1,3-diamine]
Average
  RPPA level HSP70.R.C: 1.160
  RPPA level Hexokinase.I.R.C: 1.048
  RPPA level Hexokinase.II.R.V: 0.963
  RPPA level Hif.1αR.C: 0.904
  RPPA level Histone.H3.R.V: 5.173
  RPPA level Histone.H3_pS10.R.V: 2.026
  RPPA level IDO.R.C: 1.014
  RPPA level IGF1R_pY1135_Y1136.R.V: 0.992
  RPPA level IGFBP2.R.V: 0.899
  RPPA level IGFBP3.M.V: 0.907
  RPPA level IGFRb.R.C: 1.146
  RPPA level IL.6.R.C: 1.008
  RPPA level IMP3.R.C: 1.016
  RPPA level INPP4b.R.C: 0.905
  RPPA level IR.b.R.C: 1.149
  RPPA level IRF.1.R.V: 0.954
  RPPA level IRF.3.R.V: 0.948
  RPPA level IRS1.R.V: 1.105
  RPPA level IRS2.R.C: 1.211
  RPPA level JAB1.M.C: 0.972
  RPPA level JNK2.R.V: 0.925
  RPPA level Jagged1.R.V: 1.085
  RPPA level KAP1.R.V: 1.034
  RPPA level KEAP1.R.V: 0.960
  RPPA level LAD1.R.V: 1.019
  RPPA level LC3A.B.R.C: 1.119
  RPPA level LCN2.R.V: 1.461
  RPPA level LDHA.R.C: 0.979
  RPPA level Lck.R.V: 1.187
  RPPA level Lyn.R.V: 1.058
  RPPA level MACC1.R.V: 1.008
  RPPA level MAPK_pT202_Y204.R.C: 0.677
  RPPA level MCT4.R.V: 0.896
  RPPA level MDM2_pS166.R.V: 1.230
  RPPA level MEK1.R.V: 2.341
  RPPA level MEK2.R.V: 1.026
  RPPA level MERIT40.R.C: 0.895
  RPPA level MERIT40_pS29.R.V: 0.991
  RPPA level METTL3.R.V: 1.155
  RPPA level MIF.R.C: 0.950
  RPPA level MIG6.R.V: 0.989
  RPPA level MITF.R.V: 1.031
  RPPA level MLH1.M.V: 0.887
  RPPA level MLKL.R.V: 0.867
  RPPA level MMP2.R.V: 0.982
  RPPA level MMP14.R.V: 1.321
  RPPA level MR1.M.C: 1.026
  RPPA level MRAP.R.C: 1.126
  RPPA level MSH2.R.C: 0.913
  RPPA level MSH6.R.C: 1.164
  RPPA level MSI2.R.C: 1.099
  RPPA level MTCO1.M.V: 1.031
  RPPA level MTSS1.M.C: 0.981
  RPPA level Mcl.1.R.V: 0.838
  RPPA level Melanoma.gp100.R.C: 1.007
  RPPA level Merlin.R.C: 1.156
  RPPA level Midkine.R.V: 0.970
  RPPA level Mitofusin.1.R.V: 0.952
  RPPA level Mitofusin.2.R.V: 0.892
  RPPA level Mnk1.R.V: 0.957
  RPPA level mTOR.R.V: 0.941
  RPPA level mTOR_pS2448.R.C: 0.914
  c.Jun_pS73.R.V RPPA level: 0.970
  c.Kit.R.V RPPA level: 1.141
  c.Met_pY1234_Y1235.R.V RPPA level: 1.064
  cGAS.R.V RPPA level: 1.063
  cdc2_pY15.R.C RPPA level: 1.101
  cdc25C.R.V RPPA level: 0.883
D.1
  RPPA ACC1.R.C: 0.904
  RPPA ACC_pS79.R.V: 1.061
  RPPA ACLY_pS455.R.V: 0.944
  RPPA ACSL1.R.V: 1.054
  RPPA ACVRL1.R.C: 1.049
  RPPA ADAR1.M.V: 1.103
  RPPA ALKBH5.R.V: 1.309
  RPPA AMPK.a2_pS345.R.V: 0.933
  RPPA AMPKa.R.C: 1.010
  RPPA AMPKa_pT172.R.C: 1.099
  RPPA ARID1A.R.C: 2.023
  RPPA ASNS.R.V: 0.909
  RPPA ATM.R.V: 0.752
  RPPA ATP5A.M.C: 1.056
  RPPA ATP5H.R.V: 1.455
  RPPA ATR.R.V: 1.004
  RPPA ATRX.R.C: 0.831
  RPPA AceCS1.R.V: 1.063
  RPPA Akt1.R.V: 0.712
  RPPA Akt1_pS473.R.V: 0.750
  RPPA Akt2.R.V: 0.746
  RPPA Akt2_pS474.R.C: 0.847
  RPPA Akt.R.V: 0.884
  RPPA Akt_pS473.R.V: 0.449
  RPPA Ambra1_pS52.R.C: 1.082
  RPPA Annexin.I.M.V: 0.994
  RPPA Annexin.VII.M.V: 1.057
  RPPA Atg4B.R.C: 0.789
  RPPA Atg5.R.C: 1.025
  RPPA Atg7.R.V: 0.657
  RPPA Aurora.A.R.C: 1.945
  RPPA Aurora.ABC_pT288_pT232_pT198.R.C: 0.842
  RPPA Aurora.B.R.V: 1.775
  RPPA Axl.R.V: 0.594
  RPPA B7.H3.R.C: 0.996
  RPPA B7.H4.R.C: 0.838
  RPPA B.Raf.R.C: 0.786
  RPPA B.Raf_pS445.R.V: 0.752
  RPPA BAP1.M.V: 1.051
  RPPA BCL2A1.R.V: 0.907
  RPPA BMK1.Erk5_pT218_Y220.R.V: 1.016
  RPPA BRCA1.M.C: 1.165
  RPPA BRD4.R.V: 1.680
  RPPA Bad_pS112.R.V: 0.993
  RPPA Bak.R.C: 1.006
  RPPA Bcl2.R.C: 1.280
  RPPA Bcl.xL.R.V: 0.996
  RPPA Beclin.R.C: 1.111
  RPPA BiP.GRP78.M.C: 1.051
  RPPA Bid.R.C: 1.015
  RPPA Bim.R.V: 1.098
  RPPA X4E.BP1.R.V: 0.866
  RPPA X4E.BP1_pS65.R.V: 0.834
  RPPA X4E.BP1_pT37_T46.R.V: 0.918
  RPPA X14.3.3.zeta.R.V: 1.017
  RPPA X14.3.3βR.V: 1.192
  RPPA X53BP1.R.V: 1.055
  RPPA b.Actin.R.C: 1.239
  RPPA b.Catenin.R.V: 1.006
  RPPA b.Catenin_pT41_S45.R.V: 1.014
  RPPA c.Abl.R.V: 0.991
  RPPA c.Abl_pY412.R.C: 0.922
  RPPA c.IAP2.R.C: 1.019
Average of 3
  RPPA PREX1.R.V Average: 0.950
  RPPA PTEN.R.V Average: 1.082
  RPPA PTPN12.R.V Average: 1.211
  RPPA PYGB.R.V Average: 1.080
  RPPA PYGM.M.C Average: 0.983
  RPPA Puma.R.C Average: 1.011
  RPPA RBM15.R.V Average: 0.995
  RPPA RIP3.R.C Average: 0.996
  RPPA RIP.R.C Average: 1.022
  RPPA RPA32.R.V Average: 1.078
  RPPA RPA32_pS4_S8.R.C Average: 1.531
  RPPA RRM1.R.C Average: 0.946
  RPPA RRM2.R.C Average: 0.922
  RPPA RSK1.R.V Average: 0.941
  RPPA RSK.R.C Average: 0.973
  RPPA Rab11.R.C Average: 1.059
  RPPA Rad23A.R.C Average: 0.946
  RPPA Rad50.R.V Average: 1.053
  RPPA Rad51.R.C Average: 0.940
  RPPA Raptor.R.V Average: 0.967
  RPPA Rb.M.Q Average: 0.977
  RPPA Rb_pS807_S811.R.V Average: 0.907
  RPPA Rheb.M.C Average: 1.147
  RPPA Rictor.R.C Average: 1.017
  RPPA Rictor_pT1135.R.V Average: 1.076
  RPPA S6.M.V Average: 0.982
  RPPA S6_pS235_S236.R.V Average: 0.339
  RPPA S6_pS240_S244.R.V Average: 0.423
  RPPA SCD.M.V Average: 0.961
  RPPA SDHA.R.V Average: 1.098
  RPPA SF2.R.V Average: 1.008
  RPPA SFRP1.R.V Average: 0.986
